The numbers were not newly measured in US4716040A, “Controlled absorption methyldopa pharmaceutical formulation” (Elan Corporation P.L.C., priority 1983, dated 1987), which cites them from elsewhere.

The subject of series [1] is hypertension.
For series [2], the system named is decarboxylation of dopa to dopamine.

With `C[C@](N)(Cc1ccc(O)c(O)c1)C(=O)O` [methyldopa, 3-hydroxy-α-methyl-L-tyrosine], where the note is “of the methyldopa eliminated in the urine”, the “unchanged methyldopa in urine” value is “about 25%”. For the same molecule, the “fraction of oral dose absorbed” value (oral) is “about one half”. For the setting “remainder of the methyldopa eliminated in the urine”, the metabolites in urine entry was “mainly a mono-O-sulphate of methyldopa”. In addition, the oedema result in series [1] (methyldopa therapy) is on record as “sometimes observed”. The “effect on standing and supine blood pressure” value in series [1] (moderate to severe hypertension) was “reducing the standing blood pressure and also reduces the supine blood pressure”. Further, in series [1] (oral), the “maximum hypotensive effect may not occur until” value was “second day of treatment”, the “onset of effects after oral administration” value is listed as “about 2 hours” and the “some effect still usually apparent after a dose” value is 24 h. Further, the “decarboxylation of dopa to dopamine” value in series [2] is listed as “inhibits”.
